Assay results reported in patent publication US11584709B2, “Multitarget drug for treating diseases in mammals” (“PHARMENTERPRISES EURASIA” LIMITED LIABILITY COMPANY, priority 2017, dated 2023).

Assays:
[1] = Stability in blood plasma, pygmy hog; format: in vitro ADME; conditions: 1 μM, 37° C.
Experimental: (§1) Compound 1 at a concentration of 1 μM was incubated for 24 hours in the blood plasma of human and various animal species (rats, mice, guinea pigs, rabbits, horses, dogs, bull, pygmy hogs) at 37° C. Aliquots were taken at time points of 0, 0.25, 1, 2, 4, 8 and 24 hours. In the case of blood plasma of rabbits and monkeys, Compound 1 was incubated for 4 hours, and aliquots were taken at time points 0, 0.25, 1, 4. After the protein precipitation with acetonitrile, samples were analyzed by HPLC-MS/MS to determine the concentration of Compound 1. Verapamil was used as a stable control.

[2] = test system: motility of the gastrointestinal tract; assay: Model of irritable bowel syndrome: motility of the gastrointestinal tract (activated carbon); format: in vivo, nonlinear male mice
Experimental: The effect on the motility of the gastrointestinal tract was studied on a model of irritable bowel syndrome in nonlinear male mice weighing 24-30 g. The animals were intragastrically injected with a solution of activated carbon (50 mg/ml, in a volume of 10 ml/kg) and the speed (in minutes) of the movement of activated coal through the intestines of animals. The compounds under study were intragastrically administered once 1 hour before the introduction of activated carbon. Drotaverine (6.7 mg/kg), Buscopan (3 mg/kg) and Trimedat (33 mg/kg) were used as reference drugs.

[3] = target: T1, cannabinoid receptor type 1 (CB1R) (Homo sapiens, UniProt P21554); assay: Activity of cannabinoid receptor type 1, CHO cells expressing CB1R; format: cell-based; conditions: agonist, control CP55940 (30 nM)
T1 construct: expressed in transfected cells; host or cells: CHO cells
Experimental: Compound 1 was dissolved in DMSO to a concentration of 100 mM; then the stock solution was serially diluted with DMSO. The maximum starting concentration of the substance is 100 μM. The effect was determined at 5 concentrations of the tested compounds, each concentration was studied twice. CHO cells expressing CB1R were used in the experiment, these cells were incubated with the test compound. CP55940 (30 nM) compound was used as the control. The activity of receptors was determined by the intracellular calcium concentration by the homogeneous time resolved fluorescence spectroscopy (Mol Pharmacol. 1995 September; 48(3):443-50).

[4] = Stability in blood plasma, human; format: in vitro ADME; conditions: 1 μM, 37° C.
Experimental: as §1

[5] = target: T2, tachykinin receptor type 1 (NK1R) (Homo sapiens, UniProt P25103); assay: Activity of tachykinin receptor type 1 (NK1R), intracellular calcium, U373 cells; format: cell-based; conditions: antagonist, [Sar9, Met(O2)11]-SP (1 nM)
T2 construct: endogenous in cells; host or cells: U373 cells
Experimental: Compound 1 dissolved in DMSO to a concentration of 100 mM; then a stock solution was serially diluted with DMSO. The maximum starting concentration of the substance is 100 μM. The effect was determined at 5 concentrations of the tested compounds, each concentration was studied twice. U373 cells expressing NK1R were used in the experiment, said cells, after the preincubation with an [Sar9, Met(O2)11]-SP (1 nM) […], were incubated with Compound 1. The activity of receptors was determined according to the intracellular calcium concentration by the fluorescence spectroscopy (Glia. 1992; 6(2):89-95).

[6] = target: T3, human recombinant cathepsin S (Homo sapiens, UniProt P25774); assay: Effect on the enzymatic activity of cathepsin S; format: biochemical; conditions: inhibitor; preincubated 15 minutes at 37° C.; substrate Z-Phe-Arg-AMC (6 μM)
T3 construct: host or cells: E. coli
Experimental: Compound 1 was dissolved in DMSO to a concentration of 100 mM; then a stock solution was serially diluted with DMSO. The maximum starting concentration of the substance is 100 μM. The effect was determined at 5 concentrations of the tested compounds, each concentration was studied twice. A human recombinant cathepsin S, expressed in E. coli was used in the experiment. Test compounds were preincubated for 15 minutes at 37° C. with an enzyme whose activity was determined by the rate of transformation of the substrate Z-Phe-Arg-AMC (6 μM) by the fluorescence spectroscopy (Protein Sci. 1996 April; 5(4):789-91).

[7] = target: T4, serotonin receptors 5-HT2B (Homo sapiens, UniProt P41595); assay: Activity of serotonin receptors 5-HT2B, CHO cells; format: cell-based; conditions: antagonist, serotonin agonist (30 nM)
T4 construct: expressed in transfected cells; host or cells: CHO cells
Experimental: Compound 1 was dissolved in DMSO to a concentration of 100 mM; then a stock solution was serially diluted with DMSO. The maximum starting concentration of the substance is 100 μM. The effect was determined at 5 concentrations of the tested compounds, each concentration was studied twice. CHO cells expressing serotonin receptors 5-HT2B were used in the experiment, these cells, after preincubation with a serotonin agonist (30 nM), were incubated with the test compound. The activity of receptors was determined according to the intracellular calcium concentration of phosphatidylinositol by the homogeneous time resolved fluorescence spectroscopy (Br J Pharmacol. 1999 September; 128(1):13-20).

T4 sequence (P41595 whole entry): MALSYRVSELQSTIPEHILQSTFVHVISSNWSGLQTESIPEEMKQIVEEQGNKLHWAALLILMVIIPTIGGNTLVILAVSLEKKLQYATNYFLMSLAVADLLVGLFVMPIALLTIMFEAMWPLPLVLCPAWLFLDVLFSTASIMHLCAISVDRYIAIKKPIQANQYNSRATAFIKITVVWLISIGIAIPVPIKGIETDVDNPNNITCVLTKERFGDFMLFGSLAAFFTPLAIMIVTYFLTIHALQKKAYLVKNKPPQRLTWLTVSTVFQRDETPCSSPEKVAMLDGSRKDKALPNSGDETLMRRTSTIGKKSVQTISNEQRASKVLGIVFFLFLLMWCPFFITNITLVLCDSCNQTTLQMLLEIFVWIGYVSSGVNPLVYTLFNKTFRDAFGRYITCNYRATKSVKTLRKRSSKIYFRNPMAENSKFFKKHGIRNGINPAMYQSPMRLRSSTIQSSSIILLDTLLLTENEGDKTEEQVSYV
T3 sequence (P25774 115-331): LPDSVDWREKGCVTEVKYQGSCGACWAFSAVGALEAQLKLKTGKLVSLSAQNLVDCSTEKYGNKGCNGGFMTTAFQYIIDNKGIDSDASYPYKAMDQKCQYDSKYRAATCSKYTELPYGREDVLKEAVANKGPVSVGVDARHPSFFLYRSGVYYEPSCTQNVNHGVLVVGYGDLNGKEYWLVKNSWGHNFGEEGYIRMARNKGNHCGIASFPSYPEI
T1 sequence (P21554 whole entry): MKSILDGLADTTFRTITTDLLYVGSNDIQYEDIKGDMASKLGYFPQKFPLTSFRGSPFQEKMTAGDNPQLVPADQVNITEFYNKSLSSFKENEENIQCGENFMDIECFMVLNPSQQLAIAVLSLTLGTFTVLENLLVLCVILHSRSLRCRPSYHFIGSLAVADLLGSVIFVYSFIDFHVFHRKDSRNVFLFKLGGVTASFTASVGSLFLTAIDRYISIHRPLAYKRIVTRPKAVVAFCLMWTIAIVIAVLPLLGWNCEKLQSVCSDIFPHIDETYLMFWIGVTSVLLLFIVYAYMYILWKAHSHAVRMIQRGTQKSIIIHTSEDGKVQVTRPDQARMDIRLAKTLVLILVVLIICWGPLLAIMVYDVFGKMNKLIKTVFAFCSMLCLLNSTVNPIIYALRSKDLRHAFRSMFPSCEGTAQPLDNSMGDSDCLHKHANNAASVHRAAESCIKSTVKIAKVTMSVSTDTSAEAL
T2 sequence (P25103 whole entry): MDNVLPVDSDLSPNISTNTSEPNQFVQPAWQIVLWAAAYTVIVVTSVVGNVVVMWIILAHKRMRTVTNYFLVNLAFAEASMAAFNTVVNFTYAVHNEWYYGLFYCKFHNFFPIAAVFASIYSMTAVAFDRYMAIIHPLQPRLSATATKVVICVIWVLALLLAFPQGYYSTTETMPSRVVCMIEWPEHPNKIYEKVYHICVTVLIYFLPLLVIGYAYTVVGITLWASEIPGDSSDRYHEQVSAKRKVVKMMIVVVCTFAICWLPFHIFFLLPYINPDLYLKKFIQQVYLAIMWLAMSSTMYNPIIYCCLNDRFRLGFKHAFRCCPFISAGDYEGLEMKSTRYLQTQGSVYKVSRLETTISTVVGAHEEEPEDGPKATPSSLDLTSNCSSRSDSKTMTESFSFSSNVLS

O=C(Cc1ccc(O)cc1)N[C@@H](Cc1ccccc1)C(=O)OCc1ccccc1 [Compound 1, benzyl (2S)-2-[2-(4-hydroxyphenyl)acetamido]-3-phenylpropanoate]
Content, % from the initial, Mean (n = 2) ([1]; 0 hour): 100%
Content, % from the initial, Mean (n = 2) ([1]; 0.25 hour): 92.6%
Content, % from the initial, Mean (n = 2) ([1]; 1 hour): 61.8%
Content, % from the initial, Mean (n = 2) ([1]; 2 hour): 35.9%
Content, % from the initial, Mean (n = 2) ([1]; 4 hour (so in the source)): 2.68%
Content, % from the initial, Mean (n = 2) ([1]; time cell empty (last line)): 0.15%
Content, % from the initial, Mean (n = 2) ([1]; time cell empty (line after 2 hour)): 15.9%
The evacuation speed of activated carbon ([2]; 0.5 mg/kg once intragastrically 1 hour before activated carbon): 89.45 ± 1.9 min
The evacuation speed of activated carbon ([2]; 1.5 mg/kg once intragastrically 1 hour before activated carbon): 104.25 ± 5.49 min
The evacuation speed of activated carbon ([2]; 5 mg/kg once intragastrically 1 hour before activated carbon): 107.67 ± 3.07 min
The evacuation speed of activated carbon ([2]; 10 mg/kg once intragastrically 1 hour before activated carbon): 126.6 ± 3.66 min
The evacuation speed of activated carbon ([2]; 15 mg/kg once intragastrically 1 hour before activated carbon): 123.13 ± 5.27 min
The evacuation speed of activated carbon ([2]; 50 mg/kg once intragastrically 1 hour before activated carbon): 129.13 ± 3.19 min
The evacuation speed of activated carbon ([2]; 150 mg/kg once intragastrically 1 hour before activated carbon): 135.63 ± 2.87 min
increase of the evacuation time of activated carbon ([2]; summary of table 7): 2 times
IC50 [3]: 3.3 µM
Content, % from the initial, Mean (n = 2) ([4]; 0 hour): 100%
Content, % from the initial, Mean (n = 2) ([4]; 0.25 hour): 85.4%
Content, % from the initial, Mean (n = 2) ([4]; 1 hour): 70.3%
Content, % from the initial, Mean (n = 2) ([4]; 2 hour): 50.1%
Content, % from the initial, Mean (n = 2) ([4]; 4 hour): 32.1%
Content, % from the initial, Mean (n = 2) ([4]; 8 hour): 16.4%
Content, % from the initial, Mean (n = 2) ([4]; 24 hour): 0.00%
IC50 [5]: 4.1 µM
IC50 [6]: 6.7 µM
IC50 [7]: 8.9 µM
